In article PMC6934184, “Selective DNA-PKcs inhibition extends the therapeutic index of localized radiotherapy and chemotherapy” (The Journal of Clinical Investigation, 2019):

Target: T1, PRKD2 (PKD2) (Homo sapiens, UniProt Q9BZL6)
T1 construct: purchased Thermo Fisher Scientific (Life Technologies) SelectScreen
Experiment: SelectScreen Z'LYTE
Type: biochemical
Outline: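 Percent values come from Thermo SelectScreen profiling of NU5455, combining activity and binding assays. CSF1R was run in Z'LYTE format at Km app ATP, and CAMK1 in Adapta format with ATP listed at 10.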

T1 sequence (Q9BZL6 whole entry): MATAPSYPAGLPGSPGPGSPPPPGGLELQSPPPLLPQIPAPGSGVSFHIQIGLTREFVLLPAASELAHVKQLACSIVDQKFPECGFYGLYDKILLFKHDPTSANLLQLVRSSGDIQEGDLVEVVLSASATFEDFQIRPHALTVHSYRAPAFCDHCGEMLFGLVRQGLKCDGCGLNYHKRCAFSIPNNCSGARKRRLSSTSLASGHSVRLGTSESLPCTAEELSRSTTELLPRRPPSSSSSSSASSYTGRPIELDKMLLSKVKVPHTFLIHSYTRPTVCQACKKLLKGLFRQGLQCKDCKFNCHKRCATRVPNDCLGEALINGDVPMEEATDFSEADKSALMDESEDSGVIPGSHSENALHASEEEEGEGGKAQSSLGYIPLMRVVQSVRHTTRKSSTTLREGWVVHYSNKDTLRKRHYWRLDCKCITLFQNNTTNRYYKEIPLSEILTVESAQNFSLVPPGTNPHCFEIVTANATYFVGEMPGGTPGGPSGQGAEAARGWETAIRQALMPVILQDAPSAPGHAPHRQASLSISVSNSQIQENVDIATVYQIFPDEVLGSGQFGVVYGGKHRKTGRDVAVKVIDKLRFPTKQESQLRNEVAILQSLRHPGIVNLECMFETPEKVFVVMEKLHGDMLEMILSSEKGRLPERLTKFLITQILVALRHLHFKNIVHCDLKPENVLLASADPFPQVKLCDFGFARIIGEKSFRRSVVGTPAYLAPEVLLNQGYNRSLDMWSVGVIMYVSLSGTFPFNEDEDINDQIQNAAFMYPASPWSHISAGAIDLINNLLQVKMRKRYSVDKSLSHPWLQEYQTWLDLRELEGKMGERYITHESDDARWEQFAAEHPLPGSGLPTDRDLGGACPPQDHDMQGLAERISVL

For `CN(C(=O)CN1CCOCC1)c1ccc2sc3c(-c4cccc5c(=O)cc(N6CC7CCC(C6)O7)oc45)cccc3c2c1` [NU5455], the inhibition at 1 µM was -9.1%.
